Results: patent publication US12643910B2, “Substituted pyrazolo[3,4-b]pyridines as ectonucleotide pyrophosphatase/phosphodiesterase 1 (ENPP1) modulators” (SANFORD BURNHAM PREBYS MEDICAL DISCOVERY INSTITUTE, priority 2019, dated 2026)

Tests used:
human ENPP1 = target: T1, human ENPP1 (Homo sapiens, UniProt P22413); assay: ENPP1 assay with ATP substrate (Transcreener AMP2/GMP2 TR-FRET); assay type: biochemical; conditions: 1 hour at room temperature
T1 construct: made in house
T1 sequence (P22413 1-925): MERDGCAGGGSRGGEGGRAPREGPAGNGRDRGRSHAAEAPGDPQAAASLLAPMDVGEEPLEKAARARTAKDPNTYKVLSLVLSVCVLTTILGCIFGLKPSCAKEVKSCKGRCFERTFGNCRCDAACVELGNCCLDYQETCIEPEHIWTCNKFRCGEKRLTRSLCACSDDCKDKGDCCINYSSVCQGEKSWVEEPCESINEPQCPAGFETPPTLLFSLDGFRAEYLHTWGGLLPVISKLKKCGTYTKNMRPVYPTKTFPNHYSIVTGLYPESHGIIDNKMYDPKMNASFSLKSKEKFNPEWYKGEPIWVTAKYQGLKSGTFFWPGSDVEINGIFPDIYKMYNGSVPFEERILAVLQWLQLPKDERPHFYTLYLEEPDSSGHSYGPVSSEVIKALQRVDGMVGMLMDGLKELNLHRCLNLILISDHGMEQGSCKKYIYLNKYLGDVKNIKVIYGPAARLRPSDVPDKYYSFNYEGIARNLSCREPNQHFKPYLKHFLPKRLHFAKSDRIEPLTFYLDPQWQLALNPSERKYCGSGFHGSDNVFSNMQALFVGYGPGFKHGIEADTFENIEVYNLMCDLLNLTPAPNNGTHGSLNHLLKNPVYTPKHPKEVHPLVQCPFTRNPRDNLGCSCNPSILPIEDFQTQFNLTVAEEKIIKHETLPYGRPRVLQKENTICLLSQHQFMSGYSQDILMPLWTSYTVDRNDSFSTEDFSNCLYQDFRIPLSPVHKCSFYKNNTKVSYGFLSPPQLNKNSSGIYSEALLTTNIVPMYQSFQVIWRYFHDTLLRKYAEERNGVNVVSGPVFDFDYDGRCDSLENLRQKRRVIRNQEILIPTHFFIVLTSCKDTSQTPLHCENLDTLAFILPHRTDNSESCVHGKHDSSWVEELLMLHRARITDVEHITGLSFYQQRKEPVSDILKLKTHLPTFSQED
Procedure, shortened: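 Reaction ran 1 h at room temperature in pH 7.5 Tris with MgCl2, TCEP, Tween 20 and 1% DMSO. ATP was added as a 300 nM stock and enzyme as an 8.5 μM stock. After EDTA stop, AMP was read by TR-FRET tracer displacement. Percent inhibition used enzyme/no-enzyme controls; IC50 was fitted with a variable slope.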

ENPP3 = target: T2, ENPP3 (Homo sapiens, UniProt O14638); assay: ENPP3 Km ATP assay; assay type: biochemical; conditions: ATP at Km
T2 sequence (O14638 1-875): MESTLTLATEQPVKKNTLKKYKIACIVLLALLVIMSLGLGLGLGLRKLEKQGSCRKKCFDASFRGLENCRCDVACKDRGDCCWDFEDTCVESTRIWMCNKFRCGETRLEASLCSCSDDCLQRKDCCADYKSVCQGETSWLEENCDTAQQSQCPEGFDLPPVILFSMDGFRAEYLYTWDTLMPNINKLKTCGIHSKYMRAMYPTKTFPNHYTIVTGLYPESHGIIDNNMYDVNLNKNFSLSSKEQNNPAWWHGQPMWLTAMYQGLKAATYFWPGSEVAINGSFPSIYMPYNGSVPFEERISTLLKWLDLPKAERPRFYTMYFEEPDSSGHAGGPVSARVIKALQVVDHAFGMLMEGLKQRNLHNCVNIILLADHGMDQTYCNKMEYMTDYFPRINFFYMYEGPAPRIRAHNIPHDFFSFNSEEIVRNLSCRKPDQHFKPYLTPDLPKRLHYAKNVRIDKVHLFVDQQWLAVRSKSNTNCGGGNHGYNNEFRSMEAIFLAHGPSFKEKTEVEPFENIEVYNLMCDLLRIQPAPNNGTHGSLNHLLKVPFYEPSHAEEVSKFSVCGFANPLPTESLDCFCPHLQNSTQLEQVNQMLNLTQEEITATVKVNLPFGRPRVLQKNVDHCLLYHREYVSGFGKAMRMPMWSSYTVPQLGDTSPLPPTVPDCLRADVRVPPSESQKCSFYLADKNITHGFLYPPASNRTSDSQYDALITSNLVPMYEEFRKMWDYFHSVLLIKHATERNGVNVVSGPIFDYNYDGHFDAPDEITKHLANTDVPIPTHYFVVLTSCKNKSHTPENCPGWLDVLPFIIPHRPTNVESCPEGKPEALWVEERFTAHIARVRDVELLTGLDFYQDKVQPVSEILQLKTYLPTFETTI

## COCCCNc1nc(NCc2ccc(S(N)(=O)=O)cc2)c2c(-c3ccccc3)csc2n1 [Example 1.56, 4-((2-(3-Methoxypropyl)amino-5-phenylthieno[2,3-d]pyrimidin-4-yl)aminomethyl)-benzenesulfonamide]
Human ENPP1
  IC50: < 0.1 µM
ENPP3
  IC50: < 0.1 µM

## Cn1ncc2c(N3CCC(NCCCc4ccc(F)cc4)CC3)ncnc21 [Example 3.50, N-(3-(4-Fluorophenyl)propyl)-1-(1-methyl-1H-pyrazolo[3,4-d]pyrimidin-4-yl)piperidin-4-amine]
Human ENPP1
  IC50: > 20 µM
ENPP3
  IC50: > 20 µM

## Cn1ncc2ncnc(NCc3ccc(S(N)(=O)=O)cc3)c21 [Example 2.54, 4-[(1-Methyl-1H-pyrazolo[4,3-d]pyrimidin-7-ylamino)-methyl]-benzenesulfonamide]
Human ENPP1
  IC50: < 0.1 µM
ENPP3
  IC50: 1 to 20 µM

## Cn1ncc2c(NCc3ccc(S(N)(=O)=O)cn3)cc(Cl)nc21 [Example 2.142, 6-(((6-Chloro-1-methyl-1H-pyrazolo[3,4-b]pyridin-4-yl)amino)methyl)pyridine-3-sulfonamide]
Human ENPP1
  IC50: < 0.1 µM
ENPP3
  IC50: 0.1 to 1 µM

## Cn1ncc2c(NCc3ccc(S(N)(=O)=O)c(C(F)(F)F)c3)ncnc21 [Example 2.41, 4-(((1-Methyl-1H-pyrazolo[3,4-d]pyrimidin-4-yl)amino)methyl)-2-(trifluoromethyl)-benzenesulfonamide]
Human ENPP1
  IC50: 0.1 to 1 µM
ENPP3
  IC50: 1 to 20 µM

## Cn1ncc2c(NCc3ccc(S(N)(=O)=O)c(Cl)c3)ccnc21 [Example 2.68, 2-Chloro-4-(((1-methyl-1H-pyrazolo[3,4-b]pyridin-4-yl)amino)methyl)-benzenesulfonamide]
Human ENPP1
  IC50: 0.1 to 1 µM
ENPP3
  IC50: 1 to 20 µM

## NS(=O)(=O)N1CCC(CNc2ncnc3scc(-c4ccccc4)c23)CC1 [Example 1.66, 4-(5-Phenylthieno[2,3-d]pyrimidin-4-yl)aminomethyl-1-piperidinesulfonamide]
Human ENPP1
  IC50: 0.1 to 1 µM
ENPP3
  IC50: 1 to 20 µM

## CCNc1nc(NCc2ccc(S(N)(=O)=O)cn2)c2cnn(C)c2n1 [Example 2.139, 6-(((6-(Ethylamino)-1-methyl-1H-pyrazolo[3,4-d]pyrimidin-4-yl)amino)methyl)pyridine-3-sulfonamide]
Human ENPP1
  IC50: 1 to 20 µM
ENPP3
  IC50: 1 to 20 µM

## Cc1csc2c(N3CCC(NCCCc4ccnc(F)c4)CC3)ncnc12 [Example 3.37, N-(3-(2-Fluoropyridin-4-yl)propyl)-1-(7-methylthieno[3,2-d]pyrimidin-4-yl)piperidin-4-amine]
Human ENPP1
  IC50: 0.1 to 1 µM
ENPP3
  IC50: > 20 µM

## CCCSc1nc(NCc2ccc(S(N)(=O)=O)cc2)c2cnn(C)c2n1 [Example 2.111, 4-((1-Methyl-6-(propylsulfanyl)-1H-pyrazolo[3,4-d]pyrimidin-4-yl)aminomethyl)-benzenesulfonamide]
Human ENPP1
  IC50: < 0.1 µM
ENPP3
  IC50: 0.1 to 1 µM

## Cn1ncc2c(OCc3ccc(S(N)(=O)=O)cc3)ncnc21 [Example 2.137, 4-((1-Methyl-1H-pyrazolo[3,4-d]pyrimidin-4-yl)oxymethyl)benzenesulfonamide]
Human ENPP1
  IC50: 1 to 20 µM
ENPP3
  IC50: 1 to 20 µM

## Cn1ncc2c(NCc3ccc(S(N)(=O)=O)cc3Cl)ccnc21 [Example 2.61, 3-Chloro-4-(((1-methyl-1H-pyrazolo[3,4-b]pyridin-4-yl)amino)methyl)benzenesulfonamide]
Human ENPP1
  IC50: 0.1 to 1 µM
ENPP3
  IC50: 0.1 to 1 µM

## Cc1csc2c(N3CCC(NC(=O)CCc4ccncc4F)CC3)ncnc12 [Example 3.38, 3-(3-fluoropyridin-4-yl)-N-(1-(7-methylthieno[3,2-d]pyrimidin-4-yl)piperidin-4-yl)propanamide]
Human ENPP1
  IC50: > 20 µM
ENPP3
  IC50: > 20 µM

## CNc1cc(NCc2ccc(S(N)(=O)=O)cc2)c2cnn(C)c2n1 [Example 2.76, 4-(((1-Methyl-6-(methylamino)-1H-pyrazolo[3,4-b]pyridin-4-yl)amino)methyl)-benzenesulfonamide]
Human ENPP1
  IC50: 1 to 20 µM
ENPP3
  IC50: 0.1 to 1 µM

## CCNc1cc(NCc2ccc(S(N)(=O)=O)cc2F)c2cnn(C)c2n1 [Example 2.144, 4-(((6-(Ethylamino)-1-methyl-1H-pyrazolo[3,4-b]pyridin-4-yl)amino)methyl)-3-fluorobenzenesulfonamide]
Human ENPP1
  IC50: 0.1 to 1 µM
ENPP3
  IC50: 0.1 to 1 µM

## Cc1csc2c(N3CCC(NC(=O)CCc4ccnc(Br)c4)CC3)ncnc12 [Example 3.9]
Human ENPP1
  IC50: 1 to 20 µM
ENPP3
  IC50: > 20 µM

## Clc1ccc(CNc2nc(-c3ccccn3)nc3scc(-c4ccccc4)c23)cc1 [Example 1.10, (4-Chloro-benzyl)-(5-phenyl-2-pyridin-2-yl-thieno[2,3-d]pyrimidin-4-yl)-amine]
Human ENPP1
  IC50: > 20 µM
ENPP3
  IC50: > 20 µM

## Fc1ccccc1CNc1nc(-c2ccccn2)nc2scc(-c3ccccc3)c12 [Example 1.8, (2-Fluoro-benzyl)-(5-phenyl-2-pyridin-2-yl-thieno[2,3-d]pyrimidin-4-yl)-amine]
Human ENPP1
  IC50: > 20 µM
ENPP3
  IC50: > 20 µM

## Cn1ncc2c(NCc3ccc(S(N)(=O)=O)cc3)nc(N3CCCCC3)nc21 [Example 2.14, 4-(((1-Methyl-6-(piperidin-1-yl)-1H-pyrazolo[3,4-d]pyrimidin-4-yl)amino)methyl)-benzenesulfonamide]
Human ENPP1
  IC50: 1 to 20 µM
ENPP3
  IC50: 0.1 to 1 µM

## O=C(CCc1ccc(F)cc1)NC1CCN(c2ncnc3c(I)csc23)CC1 [Example 3.48, 3-(4-Fluorophenyl)-N-(1-(7-iodothieno[3,2-d]pyrimidin-4-yl)piperidin-4-yl)propanamide]
Human ENPP1
  IC50: 0.1 to 1 µM
ENPP3
  IC50: > 20 µM

## Cc1csc2c(N3CCC(NCCCc4cccc(Cl)c4)CC3)ncnc12 [Example 3.19, N-(3-(3-Chlorophenyl)propyl)-1-(7-methylthieno[3,2-d]pyrimidin-4-yl)piperidin-4-amine]
Human ENPP1
  IC50: 0.1 to 1 µM
ENPP3
  IC50: > 20 µM

## COc1cc(CCCNC2CCN(c3ncnc4c(C)csc34)CC2)ccn1 [Example 3.51, N-(3-(2-Methoxypyridin-4-yl)propyl)-1-(7-methylthieno[3,2-d]pyrimidin-4-yl)piperidin-4-amine]
Human ENPP1
  IC50: 0.1 to 1 µM
ENPP3
  IC50: > 20 µM

## CN1CCN(c2nc(NCc3ccc(S(N)(=O)=O)cc3)c3cnn(C)c3n2)CC1 [Example 2.34, 4-(((1-Methyl-6-(4-methylpiperazin-1-yl)-1H-pyrazolo[3,4-d]pyrimidin-4-yl)amino)methyl)-benzenesulfonamide]
Human ENPP1
  IC50: > 20 µM
ENPP3
  IC50: 0.1 to 1 µM

## Cc1csc2c(N3CCC(OCCCc4ccc(F)cc4)CC3)ncnc12 [Example 3.45, 4-(4-(3-(4-Fluorophenyl)propoxy)piperidin-1-yl)-7-methylthieno[3,2-d]pyrimidine]
Human ENPP1
  IC50: > 20 µM
ENPP3
  IC50: > 20 µM

## NS(=O)(=O)c1ccc(CNc2nc(-c3ccccn3)nc3scc(-c4cccnc4)c23)cc1 [Example 1.22, 4-(((2-(Pyridin-2-yl)-5-(pyridin-3-yl)thieno[2,3-d]pyrimidin-4-yl)amino)methyl)-benzenesulfonamide]
Human ENPP1
  IC50: < 0.1 µM
ENPP3
  IC50: 1 to 20 µM

## Cc1cc(CNc2ncnc3c2cnn3C)ccc1S(N)(=O)=O [Example 2.46, 2-Methyl-4-(((1-methyl-1H-pyrazolo[3,4-d]pyrimidin-4-yl)amino)methyl)-benzenesulfonamide]
Human ENPP1
  IC50: 1 to 20 µM
ENPP3
  IC50: 1 to 20 µM
